Values of other authors, collected in patent US20050147665A1, “Pharmaceutical and nutritional compositions” (Laxdale Limited, priority 1999, published 2005).

Settings: patients with end-stage renal disease; lowering homocysteine by treatment with folic acid

Nc1nc2ncc(CNc3ccc(C(=O)N[C@@H](CCC(=O)O)C(=O)O)cc3)nc2c(=O)[nH]1 [folic acid]
elevations of DGLA and AA levels: significant in the cases of DGLA and AA | elevations of EPA and DHA levels: not significant in the cases of EPA and DHA
